The NIST ThermoML archive (doi:10.1016/j.fluid.2007.05.029)
± gives the expanded uncertainty stated by the source.

What was measured:
[1] = xn = mol fraction of the nth substance listed

CCCCC(O)CO (stereo not drawn) [1,2-hexanediol]
Conditions | surface tension liquid-gas [mN/m]
283.15 K | 24.7 ± 0.8
288.15 K | 24.4 ± 0.8
293.15 K | 24.1 ± 0.8
298.15 K | 23.8 ± 0.8
303.15 K | 23.6 ± 0.8
308.15 K | 23.3 ± 0.8

CC(O)CCCCO (stereo not drawn) [1,5-hexanediol]
Conditions | surface tension liquid-gas [mN/m]
283.15 K | 34.6 ± 0.9
288.15 K | 34.3 ± 0.8
293.15 K | 34.1 ± 0.8
298.15 K | 33.9 ± 0.8
303.15 K | 33.7 ± 0.8
308.15 K | 33.5 ± 0.8

CCCCC(O)CO (stereo not drawn) [1,2-hexanediol] + O
surface tension liquid-gas [mN/m], [1]
Conditions | 283.15 K | 288.15 K | 293.15 K | 298.15 K | 303.15 K | 308.15 K
x1 = 0.001 | 55.1 ± 1 | 54.5 ± 1 | 54.3 ± 1 | 53.8 ± 1 | 53.3 ± 1 | 52.7 ± 0.9
x1 = 0.0016 | 47.5 ± 0.9 | 47.3 ± 0.9 | 47 ± 0.9 | 46.6 ± 0.9 | 46.3 ± 0.9 | 45.6 ± 0.9
x1 = 0.002 | 45.1 ± 0.9 | 44.5 ± 0.9 | 43.9 ± 0.9 | 43.4 ± 0.9 | 42.8 ± 0.9 | 42.3 ± 0.9
x1 = 0.0034 | 41.6 ± 0.9 | 40.6 ± 0.9 | 40 ± 0.9 | 39.3 ± 0.9 | 38.5 ± 0.9 | 38.1 ± 0.9
x1 = 0.0052 | 37.3 ± 0.9 | 36.3 ± 0.8 | 35.5 ± 0.8 | 34.7 ± 0.8 | 33.8 ± 0.8 | 33 ± 0.8
x1 = 0.0077 | 32.2 ± 0.8 | 31.4 ± 0.8 | 30.8 ± 0.8 | 30 ± 0.8 | 29.5 ± 0.8 | 28.9 ± 0.8
x1 = 0.0108 | 28.7 ± 0.8 | 28.1 ± 0.8 | 27.7 ± 0.8 | 27.2 ± 0.8 | 26.8 ± 0.8 | 26.4 ± 0.8
x1 = 0.014 | 27.6 ± 0.8 | 26.9 ± 0.8 | 26.3 ± 0.8 | 25.7 ± 0.8 | 25.2 ± 0.8 | 24.8 ± 0.8
x1 = 0.0175 | 26.4 ± 0.8 | 25.9 ± 0.8 | 25.7 ± 0.8 | 25.3 ± 0.8 | 24.8 ± 0.8 | 24.4 ± 0.8
x1 = 0.0251 | 26.2 ± 0.8 | 25.9 ± 0.8 | 25.5 ± 0.8 | 25.2 ± 0.8 | 25 ± 0.8 | 24.7 ± 0.8
x1 = 0.036 | 25.7 ± 0.8 | 25.5 ± 0.8 | 25.2 ± 0.8 | 25 ± 0.8 | 24.7 ± 0.8 | 24.5 ± 0.8
x1 = 0.046 | 25.7 ± 0.8 | 25.4 ± 0.8 | 25.2 ± 0.8 | 24.9 ± 0.8 | 24.7 ± 0.8 | 24.4 ± 0.8
x1 = 0.0514 | 25.7 ± 0.8 | 25.4 ± 0.8 | 25.2 ± 0.8 | 24.9 ± 0.8 | 24.7 ± 0.8 | 24.4 ± 0.8
x1 = 0.0655 | 25.6 ± 0.8 | 25.4 ± 0.8 | 25.1 ± 0.8 | 24.9 ± 0.8 | 24.4 ± 0.8 | 24.1 ± 0.8
x1 = 0.0831 | 25.6 ± 0.8 | 25.3 ± 0.8 | 25.1 ± 0.8 | 24.8 ± 0.8 | 24.5 ± 0.8 | 24.1 ± 0.8
x1 = 0.0968 | 25.1 ± 0.8 | 24.9 ± 0.8 | 24.6 ± 0.8 | 24.4 ± 0.8 | 24.3 ± 0.8 | 24 ± 0.8
x1 = 0.1119 | 24.9 ± 0.8 | 24.7 ± 0.8 | 24.4 ± 0.8 | 24.1 ± 0.8 | 23.9 ± 0.8 | 23.6 ± 0.8
x1 = 1 | 24.7 ± 0.8 | 24.4 ± 0.8 | 24.1 ± 0.8 | 23.8 ± 0.8 | 23.6 ± 0.8 | 23.3 ± 0.8

O [water]
Conditions | surface tension liquid-gas [mN/m]
283.15 K | 74.1 ± 1.1
288.15 K | 73.4 ± 1.1
293.15 K | 72.6 ± 1.1
298.15 K | 71.8 ± 1.1
303.15 K | 71 ± 1.1
308.15 K | 70.2 ± 1.1

CC(O)CCC(C)O (stereo not drawn) [2,5-hexanediol]
Conditions | surface tension liquid-gas [mN/m]
283.15 K | 32.3 ± 0.8
288.15 K | 32 ± 0.8
293.15 K | 31.9 ± 0.8
298.15 K | 31.6 ± 0.8
303.15 K | 31.3 ± 0.8
308.15 K | 31 ± 0.8

O [water] + CCCCC(O)CO
[1], x2 = 0
Conditions | surface tension liquid-gas [mN/m]
283.15 K | 74.1 ± 1.1
288.15 K | 73.4 ± 1.1
293.15 K | 72.6 ± 1.1
298.15 K | 71.8 ± 1.1
303.15 K | 71 ± 1.1
308.15 K | 70.2 ± 1.1
